In paper PMC11561238, “Discovery and binding mode of small molecule inhibitors of the apo form of human TDO2” (Scientific Reports, 2024):
Values joined by “and” are separate entries in the source; they are usually repeats but may differ in a detail not shown here. Identical values can stand only once.

Tests used:
[1] = tested on: patients with unresectable or metastatic melanoma; parameters: method as in PMID 31221619; settings: with pembrolizumab, vs placebo; cited from earlier work
holo-TDO2 = tested on: holo-TDO2; parameters: method as in PMID 27762317; settings: AMT bound to exosite; cited from earlier work
apo-TDO2 = biological target: T1, apo-TDO2 (Homo sapiens, UniProt P48775); test: Differential scanning fluorimetry (thermal shift) of apo-TDO2; type: binding
T1 construct: a longer construct (His6-aa19-406, with aa406 corresponding to the wild type C-terminal residue), which was used for DSF and other experiments; made in house; host or cells: E. coli RP523 (hemB mutant, unable to synthesize heme)
T1 sequence (P48775 19-406): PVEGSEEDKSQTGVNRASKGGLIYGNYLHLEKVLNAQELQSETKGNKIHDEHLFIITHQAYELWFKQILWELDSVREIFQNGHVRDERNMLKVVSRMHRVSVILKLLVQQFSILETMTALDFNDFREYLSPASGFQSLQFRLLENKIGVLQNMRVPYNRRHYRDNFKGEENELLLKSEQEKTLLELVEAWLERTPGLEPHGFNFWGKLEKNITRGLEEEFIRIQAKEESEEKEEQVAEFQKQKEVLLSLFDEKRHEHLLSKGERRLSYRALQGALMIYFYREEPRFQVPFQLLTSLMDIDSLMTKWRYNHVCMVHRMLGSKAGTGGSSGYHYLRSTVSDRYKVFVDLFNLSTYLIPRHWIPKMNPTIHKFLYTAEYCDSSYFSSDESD
Procedure: […] S5 online).
Protein thermal stability and small molecule ligand binding of TDO2 in vitro was studied using differential scanning fluorimetry (DSF, also known as thermal shift assay)[34]. Assay ingredients and ligands were combined to obtain a mixture composed of 10 µM TDO2 and 10x SYPRO Orange, in assay buffer (50 mM HEPES-NaOH pH 8.0, 200 mM NaCl, 2 mM TCEP, 10% glycerol) and 2% final DMSO concentration. Small molecule chemical ligands were taken from DMSO stock solution (100 mM, 10 mM) and diluted in DMSO transferred to wells of PCR Plates (Micro Amp Fast 96-well Reaction Plates, Applied Biosystems) to ensure matching final DMSO concentrations.
DSF was carried out with a StepOnePlus™ real time PCR system. Thermal denaturation of TDO2 was monitored with a ramp rate of 1 K/min. Protein melting curves were evaluated using the Thermal Shift Software v 1.3. (Thermo Fisher Scientific) to derive differences in midpoint melting-temperatures (derivative model). The thermal shift (DTm) is documented as the difference between the reference midpoint melting temperature of proteins (containing 500 µM AMT) in the presence of the ligand vehicle (DMSO) and in the presence of ligand.
Supplementary Table S2. Differential scanning fluorimetry data corresponding to supplementary figure S4. The experiments were carried out in quadruplicate, or in triplicate where single outlier values (highlighted in bold italics) were excluded from calculation of the melting curves. AMT was added at a concentration of 500 µM; […] and […] were added at a concentration of 25 µM.

[2] = apo-TDO2 + AMT 500 µM alone, shift vs apo, single replicates, in °C

| SMILES | progression-free survival or overall survival [1] | effect on catalytic properties of holo-TDO2 (holo-TDO2) | effect on proteolytic degradation of holo-TDO2 (holo-TDO2) | stabilization of isolated holo-TDO2 enzyme (holo-TDO2) | melting temperature of apo-TDO2 in the absence of inhibitor (apo-TDO2; 500 µM AMT present) [°C] | Δ Tm Boltzmann (apo-TDO2; [2]) | Δ Tm Derivative (apo-TDO2; [2]) | Tm Boltzmann (apo-TDO2; apo-TDO2 + AMT 500 µM alone, single replicates (text b14 gives °C), in °C) | Tm Derivative (apo-TDO2; apo-TDO2 + AMT 500 µM alone, single replicates, in °C) |
| --- | --- | --- | --- | --- | --- | --- | --- | --- | --- |
| NS(=O)(=O)NCCNc1nonc1C(=NO)Nc1ccc(F)c(Br)c1 [epacadostat] | failed to show improved progression-free survival or overall survival compared with placebo |  |  |  |  |  |  |  |  |
| C[C@](N)(Cc1c[nH]c2ccccc12)C(=O)O [AMT, α-methyltryptophan, reference compound] |  | not affecting the catalytic properties | prevented its proteolytic degradation by the ubiquitin-dependent proteasomal pathway | stabilized the isolated holo-TDO2 enzyme against heat, urea and proteases | 59.2 | 9.95 and 10.71 and 10.46 | 9.6 and 10.48 and 10.27 | 58.75 and 59.51 and 59.26 | 58.49 and 59.36 and 59.16 |
